Source: patent US8158628B2, “Sulfonylated 1,2,3,4-tetrahydropyrrolo[1,2-a]pyrazine compounds and their use as pharmaceuticals” (Gruenenthal GmbH, priority 2009, dated 2012)

Experiments:
B1R of the rat = biological target: T1, B1R of the rat (Rattus norvegicus, UniProt P97583); assay: FLIPR Ca2+ functional assay, B1R antagonism, rat B1R in CHO K1 cells; assay type: cell-based; details: test substance 10 μM; rB1R CHO K1 cells; agonist Des-Arg9 bradykinin at EC80; % of maximum achievable inhibition
T1 construct: expressed in transfected cells; host or cells: CHO K1 cells (Chinese hamster ovary), stably transfected
T1 sequence (P97583 1-337): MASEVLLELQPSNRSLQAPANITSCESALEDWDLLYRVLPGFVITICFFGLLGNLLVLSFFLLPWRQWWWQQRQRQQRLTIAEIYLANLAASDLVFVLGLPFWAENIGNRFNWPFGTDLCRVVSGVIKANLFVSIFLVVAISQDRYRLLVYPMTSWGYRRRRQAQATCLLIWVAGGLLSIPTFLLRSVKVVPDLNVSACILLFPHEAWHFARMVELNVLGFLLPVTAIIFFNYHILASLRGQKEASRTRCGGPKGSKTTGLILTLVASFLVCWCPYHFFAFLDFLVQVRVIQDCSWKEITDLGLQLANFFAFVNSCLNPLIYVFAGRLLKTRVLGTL
Method in brief: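 Stably transfected CHO K1 cells loaded with Fluo-4; Ca2+ fluorescence read on FLIPR (ex 488/em 540 nm). Compound preincubated 10-20 min, then agonist at EC80: Lys-Des-Arg9 bradykinin (human) or Des-Arg9 bradykinin (rat). % inhibition vs maximal inhibition; IC50 from concentration series, n=2-3, N>=2.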

human B1R = biological target: T2, human B1R (Homo sapiens, UniProt P46663); assay: FLIPR Ca2+ functional assay, B1R antagonism, human B1R in CHO K1 cells; assay type: cell-based; details: test substance 10 μM; hB1R CHO K1 cells; agonist Lys-Des-Arg9 bradykinin at EC80; % of maximum achievable inhibition
T2 construct: expressed in transfected cells; host or cells: CHO K1 cells (Chinese hamster ovary), stably transfected
T2 sequence (P46663 1-353): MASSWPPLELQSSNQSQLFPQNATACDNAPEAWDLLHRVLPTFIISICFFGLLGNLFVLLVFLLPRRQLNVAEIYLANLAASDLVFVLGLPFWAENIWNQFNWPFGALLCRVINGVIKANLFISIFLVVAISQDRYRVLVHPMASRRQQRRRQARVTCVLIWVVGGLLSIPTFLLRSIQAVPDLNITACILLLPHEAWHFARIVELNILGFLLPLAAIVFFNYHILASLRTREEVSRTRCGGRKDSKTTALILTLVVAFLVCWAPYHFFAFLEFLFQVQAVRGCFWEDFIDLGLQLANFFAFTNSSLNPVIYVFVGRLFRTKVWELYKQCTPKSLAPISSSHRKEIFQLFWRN
Procedure: The agonistic or antagonistic action of substances on the bradykinin 1 receptor (B1R) of the human and rat species can be quantified with ectopically expressing cell lines (CHO K1 cells) and with the aid of a Ca^2+-sensitive dye (Fluo-4) using a fluorescent imaging plate reader (FLIPR). The value in % activation is based on the Ca^2+ signal after addition of Lys-Des-Arg^9 bradykinin (0.5 nM) or Des-Arg^9 bradykinin (100 nM). Antagonists lead to a suppression of the Ca^2+ influx following administration of the agonist. The % inhibition in comparison with the maximum achievable inhibition is indicated.
1. Functional Investigation on the Bradykinin 1 Receptor (B1R) The agonistic or antagonistic action of substances can be determined on the bradykinin 1 receptor (B1R) of the human and rat species with the following assay. According to this assay, the Ca^2+ inflow through the channel is quantified with the aid of a Ca^2+-sensitive dye (Fluo-4 type, Molecular Probes Europe BV, Leiden, Netherlands) in a fluorescent imaging plate reader (FLIPR, Molecular Devices, Sunnyvale, USA). 2. Method: Chinese hamster ovary cells (CHO K1 cells) which are stably transfected with the human B1R gene (hB1R cells) or the B1R gene of the rat (rB1R cells) are used. For functional investigations these cells are plated-out onto black 96-well plates with a clear base (BD Biosciences, Heidelberg, Germany or Greiner, Frickenhausen, Germany) in a density of 20,000-35,000 cells/well. Overnight the cells are incubated at 37° C. and 5% CO2 in culture medium (hB1R cells: Ham's Nutrient Mixture F12, Gibco Invitrogen GmbH, Karlsruhe, Germany or DMEM, Sigma-Aldrich, Taufkirchen, Germany; rB1R cells: D-MEM/F12, Gibco Invitrogen, Karlsruhe, Germany) with 10 vol. % FBS (foetal bovine serum, Gibco Invitrogen GmbH, Karlsruhe, Germany or PAN Biotech GmbH, Aidenbach, Germany).
On the following day the cells are loaded with 2.13 μM Fluo-4 (Molecular Probes Europe BV, Leiden, Netherlands) in HBSS buffer (Hank's buffered saline solution, Gibco Invitrogen GmbH, Karlsruhe, Germany) with 2.5 mM probenecid (Sigma-Aldrich, Taufkirchen, Germany) and 10 mM HEPES (Sigma-Aldrich, Taufkirchen, Germany) for 60 min at 37° C. The plates are subsequently washed twice with HBSS buffer, and HBSS buffer which additionally contains 0.1% BSA (bovine serum albumin; Sigma-Aldrich, Taufkirchen, Germany), 5.6 mM glucose and 0.05% gelatine (Merck KGaA, Darmstadt, Germany) is added. After a further incubation of 20 minutes at RT, the plates are inserted into the FLIPR for Ca^2+ measurement. Alternatively they are washed with buffer A (15 mM HEPES, 80 mM NaCl, 5 mM KCl, 1.2 mM CaCl2, 0.7 mM MgSO4, 2 g/l glucose, 2.5 mM probenecid) and loaded with buffer A with added 2.5 μM Fluo-4 and 0.025% Pluronic F127 (Sigma-Aldrich, Taufkirchen, Germany). The cells are then washed twice with buffer A and incubated for 30 minutes with buffer A, which additionally contains 0.05% BSA and 0.05% gelatine, at RT and then used for Ca^2+ measurement in the FLIPR. The Ca^2+-dependent fluorescence is measured here before and after addition of substances (λex=488 nm, λem=540 nm). The quantification is performed by measuring the highest fluorescence intensity (FC, fluorescence counts) over time.
The FLIPR protocol comprises two additions of substance. Test substances (10 μM) are first pipetted onto the cells and the Ca^2+ inflow is compared with the control (hB1R: Lys-Des-Arg^9 bradykinin >=50 nM; rB1R: Des-Arg^9 bradykinin 10 μM). The value in % activation based on the Ca^2+ signal after addition of Lys-Des-Arg^9 bradykinin (>=50 nM) or Des-Arg^9 bradykinin (10 μM) is obtained therefrom. After incubation for 10-20 minutes, Lys-Des-Arg^9 bradykinin (hB1R) or Des-Arg^9 bradykinin (rB1R) is applied in the EC80 concentration and the inflow of Ca^2+ is likewise determined.
Antagonists lead to a suppression of the Ca^2+ inflow. The % inhibition in comparison with the maximum achievable inhibition is calculated. […]

SMILES	inhibition at 10 µM (B1R of the rat) [%]	inhibition at 10 µM (human B1R) [%]
CCC(C)NCc1ccc2c(c1)CCC(NC(=O)CC1c3cccn3CCN1S(=O)(=O)c1ccc(C)c(Cl)c1)C2 (centres unmarked) [Example 63, 2-[2-[(3-Chloro-4-methyl-phenyl)sulfonyl]-1,2,3,4-tetrahydro-pyrrolo[1,2-a]pyrazin-1-yl]-N-[6-[(1-methyl-propylamino)-methyl]-1,2,3,4-tetrahydro-naphthalen-2-yl]-acetamide]	91.1	99.7
O=C(CC1c2cccn2CCN1S(=O)(=O)c1ccc(Cl)c(Cl)c1)NC1CCc2cc(CN3CCCCC3)ccc2C1 (centres unmarked) [Example 26, 2-(2-(3,4-dichlorophenylsulfonyl)-1,2,3,4-tetrahydropyrrolo[1,2-a]pyrazin-1-yl)-N-(6-(piperidin-1-ylmethyl)-1,2,3,4-tetrahydronaphthalen-2-yl)acetamide]	102	98.9
Cc1ccc(S(=O)(=O)N2CCn3cccc3C2CC(=O)NC2CCCc3cc(CNCc4ccccc4)ccc32)cc1Cl (centres unmarked) [Example 111, N-[6-[(Benzylamino)-methyl]-1,2,3,4-tetrahydro-naphthalen-1-yl]-2-[2-[(3-chloro-4-methyl-phenyl)sulfonyl]-1,2,3,4-tetrahydro-pyrrolo[1,2-a]pyrazin-1-yl]-acetamide]	103	100
Cc1ccc(S(=O)(=O)N2CCn3cccc3C2CC(=O)NC2CCc3cc(CN4CCCc5ccccc54)ccc3C2)cc1Cl (centres unmarked) [Example 52, 2-[2-[(3-Chloro-4-methyl-phenyl)sulfonyl]-1,2,3,4-tetrahydro-pyrrolo[1,2-a]pyrazin-1-yl]-N-[6-(1,2,3,4-tetrahydro-quinolin-1-yl-methyl)-1,2,3,4-tetrahydro-naphthalen-2-yl]-acetamide]	103	96
Cc1ccc(S(=O)(=O)N2CCn3cccc3C2CC(=O)NC2CCc3cc(CN4CCOCC4)ccc3C2)cc1 (centres unmarked) [Example 87, N-[6-(Morpholin-4-yl-methyl)-1,2,3,4-tetrahydro-naphthalen-2-yl]-2-[2-(p-tolylsulfonyl)-1,2,3,4-tetrahydro-pyrrolo[1,2-a]pyrazin-1-yl]-acetamide]	102	99.4
Cc1ccc(S(=O)(=O)N2CCn3cccc3C2CC(=O)NC2CCCc3cc(CNCc4ccccc4)ccc32)cc1 (centres unmarked) [Example 127, N-[6-[(Benzylamino)-methyl]-1,2,3,4-tetrahydro-naphthalen-1-yl]-2-[2-(p-tolylsulfonyl)-1,2,3,4-tetrahydro-pyrrolo[1,2-a]pyrazin-1-yl]-acetamide]	101	97.4
O=C(CC1c2cccn2CCN1S(=O)(=O)c1ccccc1)NC1CCc2cc(CN3CCCCC3)ccc2C1 (centres unmarked) [Example 27, 2-(2-(phenylsulfonyl)-1,2,3,4-tetrahydropyrrolo[1,2-a]pyrazin-1-yl)-N-(6-(piperidin-1-ylmethyl)-1,2,3,4-tetrahydronaphthalen-2-yl)acetamide]	102	100
O=C(COCC1c2cccn2CCN1S(=O)(=O)c1ccccc1C(F)(F)F)N1CCC2(CC1)CCN(c1ccncc1)C2 (centres unmarked) [Example 21, 1-(2-(Pyridin-4-yl)-2,8-diazaspiro[4.5]decan-8-yl)-2-((2-(2-(trifluoromethyl)phenylsulfonyl)-1,2,3,4-tetrahydropyrrolo[1,2-a]pyrazin-1-yl)methoxy)ethanone]	113	100
CNCc1ccc2c(c1)CCCC2NC(=O)CC1c2cccn2CCN1S(=O)(=O)c1ccc(C)cc1 (centres unmarked) [Example 133, N-[6-(Methylamino-methyl)-1,2,3,4-tetrahydro-naphthalen-1-yl]-2-[2-(p-tolylsulfonyl)-1,2,3,4-tetrahydro-pyrrolo[1,2-a]pyrazin-1-yl]-acetamide]	104	99.4
CC(C)(C)NCc1ccc2c(c1)CCCC2NC(=O)CC1c2cccn2CCN1S(=O)(=O)c1cccc(C(F)(F)F)c1 (centres unmarked) [Example 82, N-[6-[(tert-Butylamino)-methyl]-1,2,3,4-tetrahydro-naphthalen-1-yl]-2-[2-[[3-(trifluoromethyl)phenyl]sulfonyl]-1,2,3,4-tetrahydro-pyrrolo[1,2-a]pyrazin-1-yl]-acetamide]	101	99.9
Cc1ccc(S(=O)(=O)N2CCn3cccc3C2CC(=O)NC2CCc3cc(CN(C)C(C)(C)C)ccc3C2)cc1 (centres unmarked) [Example 73, N-[6-[(tert-Butyl-methyl-amino)-methyl]-1,2,3,4-tetrahydro-naphthalen-2-yl]-2-[2-(p-tolylsulfonyl)-1,2,3,4-tetrahydro-pyrrolo[1,2-a]pyrazin-1-yl]-acetamide]	103	99.8
CCC(C)NCc1ccc2c(c1)CCCC2NC(=O)CC1c2cccn2CCN1S(=O)(=O)c1ccc(C)cc1 (centres unmarked) [Example 126, N-[6-[(1-Methyl-propylamino)-methyl]-1,2,3,4-tetrahydro-naphthalen-1-yl]-2-[2-(p-tolylsulfonyl)-1,2,3,4-tetrahydro-pyrrolo[1,2-a]pyrazin-1-yl]-acetamide]	102	99.9
Cc1ccc(S(=O)(=O)N2CCn3cccc3C2CC(=O)NC2CCCc3cc(CNC(C)(C)C)ccc32)cc1Cl (centres unmarked) [Example 70, N-[6-[(tert-Butylamino)-methyl]-1,2,3,4-tetrahydro-naphthalen-1-yl]-2-[2-[(3-chloro-4-methyl-phenyl)sulfonyl]-1,2,3,4-tetrahydro-pyrrolo[1,2-a]pyrazin-1-yl]-acetamide]	102	99.9
